Laboratory results reported in US7601736B2, “Pyridine derivatives, a process for their preparation and a pharmaceutical composition containing the same” (SK Chemicals Co., Ltd., priority 2003, dated 2009).

Assays:
[1] = test system: INF-γ; experiment: Cytokine inhibitory activity in animal model (LPS-treated SD rats), plasma INF-γ; format: in vivo, Sprague Dawley (SD) rats; settings: oral
Description: (§1) Sprague Dawley (SD) rats with body weights of about 180 to about 200 g were fasted (free drinking) and then tested. […] After 2 hours, the rats were sacrificed and bloods were collected from abdominal vein, stored at room temperature for about 2 hours, and then centrifuged at 12,000 rpm for about 2 minutes. Thus produced plasma was respectively collected and its TNF-α in each plasma was quantitated using mouse TNF-α ELISA kit based on the amount of recombinant TNF-α in rats. The plate used was coated with anti-rat TNF-α monoclone IgG antibodies. Likewise, for the test of IL-1α, IL-1α in each plasma was quantitated using the above plasma and mouse IL-1α ELISA kit based on the amount of recombinant IL-1α in rats. The plate used was coated with anti-rat IL-1α monoclone IgG antibodies. Further, for the test of IL-6, IL-6 in each plasma was quantitated using the above plasma and mouse IL-6 ELISA kit based on the amount of recombinant IL-6 in rats. Further, for the test of INF-γ, INF-γ in each plasma was quantitated using the above plasma and mouse INF-γ ELISA kit based on the amount of recombinant INF-γ in rats. The plate used was coated with anti-rat INF-γ monoclone IgG antibodies. From the above tests, inhibitory rates on the expression of each cytokine were obtained and they were compared to that of Indomethacin.

[2] = test system: PGE2; experiment: Cytokine inhibitory activity in human whole blood (LPS), PGE2 ELISA; format: cell-based; settings: LPS 1 μg/mL, read-out: PGE2 Inhibition rate (conc.); for inhibition at 300 µg/mL: test conc. 300 μg/mL
Description: (§2) 20 mL of venous whole blood collected respectively from 5 healthy volunteers of men or women, who had never been medicated with anti-inflammatory drugs within the last two weeks, and was added with heparin. 1 mL each of the above blood was respectively collected, and transferred into test tubes in which it was mixed with test material. The above mixture was precultured at 37° C. for about 1 hour. Then it was added with 1 μg/mL of LPS (lipopolysaccharide), allowed to react at the same temperature for about 4 to about 12 hours and then centrifuged at 4° C. at the rate of 3000 rpm for about 10 minutes. Thus produced plasma was respectively collected and its TNF-α in each plasma was quantitated using human TNF-α ELISA kit based on the amount of recombinant TNF-α in humans. The plate used was coated with anti-human TNF-α monoclone IgG antibodies. Likewise, for the test of IL-1α, IL-1α in each plasma was quantitated using the above plasma and human IL-1α ELISA kit based on the amount of recombinant IL-1α in humans. The plate used was coated with anti-human IL-1α monoclone IgG antibodies. Further, for the test of PGE2, PGE2 in each plasma was quantitated using the above plasma and PGE2 ELISA kit based on the amount of recombinant PGE2 in humans. The plate used was coated with anti-human PGE2 monoclone IgG antibodies. From the above tests, inhibitory rates on the expression of each cytokine were obtained and they were compared to that of Indomethacin.

[3] = test system: TNF-α; experiment: Cytokine inhibitory activity in human whole blood (LPS), TNF-α ELISA; format: cell-based; settings: LPS 1 μg/mL, read-out: TNF-α Inhibition rate (conc.); for inhibition at 0.1 µg/mL: test conc. 100 ng/mL
Description: as §2

[4] = test system: IL-1α; experiment: Cytokine inhibitory activity in animal model (LPS-treated SD rats), plasma IL-1α; format: in vivo, Sprague Dawley (SD) rats; settings: oral
Description: as §1

[5] = test system: IL-6; experiment: Cytokine inhibitory activity in animal model (LPS-treated SD rats), plasma IL-6; format: in vivo, Sprague Dawley (SD) rats; settings: oral
Description: as §1

[6] = test system: TNF-α; experiment: Cytokine inhibitory activity in animal model (LPS-treated SD rats), plasma TNF-α; format: in vivo, Sprague Dawley (SD) rats; settings: Rattus norvegicus, 2 h, oral, read-out: TNF-α Inhibition Rate (Conc.)
[7] = test system: IL-1α; experiment: Cytokine inhibitory activity in human whole blood (LPS), IL-1α ELISA; format: cell-based; settings: LPS 1 μg/mL, read-out: IL-1α Inhibition rate (conc.); for inhibition at 0.1 µg/mL: test conc. 100 ng/mL
Description: as §2

[8] = test system: ICR (Institute of Cancer Research) mouse; experiment: Croton oil-induced ear edema test; format: in vivo; settings: oral
Description: (§3) Male ICR (Institute of Cancer Research) mouse with body weight of about 20 to 30 g were tested wherein each group had 6 mouses. After 1 hour of the oral administration of a test compound, Croton oil (in acetone solution) was coated on one of the ears. After 4 hours, the thickness of the swollen ear in treated group was compared with the other unswollen ear and obtained the average increase rate in thickness of ear by the treatment.

[9] = test system: ICR (Institute of Cancer Research) mouse; experiment: Analgesic test (acetic acid-induced stretchings); format: in vivo; settings: oral
Description: Male ICR (Institute of Cancer Research) mouse with body weight of about 20 to 30 g were tested wherein each group had 6 mouses. After 1 hour of the oral administration of a test compound, acetic acid (in distilled water) was abdominally administered. For the duration of 10 minutes, the animals were observed regarding the number of stretchings and the number was compared with that of placebo treated group and the result is shown in the following table 7.

[10] = test system: ICR (Institute of Cancer Research) mouse; experiment: Arachidonic acid-induced ear edema test; format: in vivo; settings: oral
Description: as §3, with “Arachidonic acid” for “Croton oil”, “1 hour,” for “4 hours,”

[11] = test system: TNF-α; experiment: Cytokine inhibitory activity in animal model (LPS-treated SD rats), plasma TNF-α; format: in vivo, Sprague Dawley (SD) rats; settings: Rattus norvegicus, 2 h; SD rats, oral, LPS; 40 mg/kg; read-out: TNF-α Inhibition Rate (Conc.)
Description: Sprague Dawley (SD) rats with body weights of about 180 to about 200 g were fasted (free drinking) and then tested. Test compounds were administered orally at 40 mg/kg and then abdominally administered with LPS 1 μg/mL after 1 hour. After 2 hours, the rats were sacrificed and bloods were collected from abdominal vein, stored at room temperature for about 2 hours, and then centrifuged at 12,000 rpm for about 2 minutes. Thus produced plasma was respectively collected and its TNF-α in each plasma was quantitated using mouse TNF-α ELISA kit based on the amount of recombinant TNF-α in rats. The plate used was coated with anti-rat TNF-α monoclone IgG antibodies. Likewise, for the test of IL-1α, IL-1α in each plasma was quantitated using the above plasma and mouse IL-1α ELISA kit based on the amount of recombinant IL-1α in rats. The plate used was coated with anti-rat IL-1α monoclone IgG antibodies. Further, for the test of IL-6, IL-6 in each plasma was quantitated using the above plasma and mouse IL-6 ELISA kit based on the amount of recombinant IL-6 in rats. Further, for the test of INF-γ, INF-γ in each plasma was quantitated using the above plasma and mouse INF-γ ELISA kit based on the amount of recombinant INF-γ in rats. The plate used was coated with anti-rat INF-γ monoclone IgG antibodies. From the above tests, inhibitory rates on the expression of each cytokine were obtained and they were compared to that of Indomethacin.

[12] = test system: TNF-α; experiment: Cytokine inhibitory activity in cells: LPS-induced TNF-α in RAW 264.7; format: cell-based, murine; settings: Mus musculus, RAW264.7, RAW 264.7, LPS 1 μg/mL, read-out: TNF-α Inhibition Rate (%); for inhibition at 1 µM: test conc. 1 μM; for inhibition at 10 µM: test conc. 10 μM; for inhibition at 100 µM: test conc. 100 μM; for inhibition at 1000 µM: test conc. 1 mM
Description: General reagents used were purchased from Sigma-Aldrich chem. Co. and cytokine inhibitory activities were tested as follows. Mediums and reagents used in cell culture were purchased from GIBCO BRL (USA), and mouse TNF-α ELISA kit was purchased from R&D system (USA). The apparatus used ELISA reader (Spectra max-Plus 384, Molecular Device, USA).
Murine macrophage cell line RAW 264.7 was kindly provided by Korean Tissue Culture Center (KTCC). The cell line was cultured in DMEM medium containing 10% FBS, in a cell culturing device at the condition of 37° C., 5% CO2. First, murine RAW 264.7 was cultured in DMEM medium containing 10% FBS for about 24 hours, and cells were planted 200 μL each in 96 well plates at the concentration of 5×10^5/mL and cultured for about 24 hours. Then, test compounds were treated at various concentrations and then reacted at 37° C. for about 1 hour, wherein 1 μg/mL of lipopolysaccharide (LPS) was added thereto and reacted at 37° C. for about 12 hours. The supernatant was recovered and the amount of murine TNF-α on the medium was quantitated using ELISA kit. Thalidomide was respectively used as a positive and a negative control to compare the activities and the results are shown in the following tables 4a -4c.

SMILES | INF-γ Inhibition rate (conc.) ([1]; 40 mg/kg) | inhibition at 300 µg/mL [2] [%] | Inhibition Rate (%) ([8]; 2 mg/kg) | Inhibition Rate (%) ([8]; 10 mg/kg) | Inhibition Rate (%) ([8]; 50 mg/kg) | inhibition at 0.1 µg/mL [3] [%] | IL-α Inhibition rate (conc.) ([4]; 40 mg/kg) | IL-6 Inhibition rate (conc.) ([5]; 40 mg/kg) | Inhibition Rate (%) ([9]; 10 mg/kg) | Inhibition Rate (%) ([9]; 50 mg/kg) | Inhibition Rate (%) ([10]; 2 mg/kg) | Inhibition Rate (%) ([10]; 10 mg/kg) | Inhibition Rate (%) ([10]; 50 mg/kg) | inhibition in vivo at 40 mg/kg [11] [%] | inhibition at 0.1 µg/mL [7] [%] | inhibition at 1 µM [12] [%] | inhibition at 10 µM [12] [%] | inhibition at 100 µM [12] [%] | inhibition at 1000 µM [12] [%] | other results
COc1ccc2c(c1)c(CC(=O)O)c(C)n2C(=O)c1ccc(Cl)cc1 [Indomethacin, reference compound] |  |  |  |  |  |  |  |  |  |  |  |  |  |  |  |  |  |  |  | INF-γ Inhibition rate (conc.) ([1]; 200 mg/kg): 13% (200 mg/kg); inhibition at 200 µg/mL ([2]; test conc. 200 μg/mL): 37%; inhibition at 200 µg/mL ([3]; test conc. 200 μg/mL): 37%; IL-α Inhibition rate (conc.) ([4]; 200 mg/kg): 24% (200 mg/kg); IL-6 Inhibition rate (conc.) ([5]; 200 mg/kg): 60% (200 mg/kg); inhibition in vivo at 200 mg/kg [6]: 46%; inhibition at 200 µg/mL ([7]; test conc. 200 μg/mL): 25%
C=Cc1cncc2c1CCOC2=O [Ex. 9, 5-vinyl-3,4-dihydro-pyrano[3,4-c]pyridine-1-on] | 45% (40 mg/kg) | 38 | 25 | 44 | 37 | 82 | 62% (40 mg/kg) | 43% (40 mg/kg) | 73 | 76 | 21 | 29 | 39 | 59 | 93 | 37 | 38 | 39 | 41 | 
Cc1cc2c(cn1)C(=O)OCC2 [Ex. 6, 6-methyl-3,4-dihydro-pyrano[3,4-c]pyridine-1-on] | 51% (40 mg/kg) | 23 | 17 | 39 | 69 | 84 | 52% (40 mg/kg) | 78% (40 mg/kg) | 76 | 75 | 21 | 36 | 41 | 39 | 90 | 30 | 35 | 36 | 38 | 
O=C1OCCc2ccncc21 [Ex. 3, 3,4-dihydro-pyrano[3,4-c]pyridine-1-on] | 48% (40 mg/kg) | 24 | 33 | 56 | 57 | 90 | 65% (40 mg/kg) | 71% (40 mg/kg) | 76 | 92 | 33 | 51 | 46 | 75 | 95 | 34 | 35 | 43 | 44 | 
